Assay results as given in patent US20250098679A1, “HERBICIDAL PYRIDONE DERIVATIVES” (SYNGENTA CROP PROTECTION AG, priority 2021, published 2025).

Columns and labels:
Format in all cases: in vivo
Conditions in all cases: evaluated after 13 days
Zea mays (ZEAMX) [1] = experiment: Pre-emergence Test, Zea mays (ZEAMX)
Setaria faberi (SETFA) [2] = experiment: Pre-emergence Test, Setaria faberi (SETFA)
[3] = system: Echinochloa crus-galli (ECHCG); experiment: Post-emergence Test, Echinochloa crus-galli (ECHCG); parameters: key to percentage damage caused to the plant, ECHCG (five-point scale): 5=81-100%, 4=61-80%, 3=41-60%, 2=21-40%, 1=0-20% damage
Outline: (§1)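 Scores are percentage plant damage on a 1–5 scale (1=0-20%, 2=21-40%, 3=41-60%, 4=61-80%, 5=81-100%), read 13 days after treatment. Pots received a spray at 1000 g/ha unless otherwise stated, formulated in acetone/water (50:50) containing 0.5% Tween 20.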

[4] = system: Amaranthus retoflexus (AMARE); experiment: Pre-emergence Test, Amaranthus retoflexus (AMARE)
[5] = system: Amaranthus palmeri (AMAPA); experiment: Post-emergence Test, Amaranthus palmeri (AMAPA); parameters: key: 5=81-100%, 4=61-80%, 3=41-60%, 2=21-40%, 1=0-20% damage
Outline: as §1

Setaria faberi (SETFA) [6] = experiment: Post-emergence Test, Setaria faberi (SETFA); parameters: key to percentage damage caused to the plant, SETFA (five-point scale): 5=81-100%, 4=61-80%, 3=41-60%, 2=21-40%, 1=0-20% damage
Outline: as §1

[7] = system: Ipomoea hederacea (IPOHE); experiment: Pre-emergence Test, Ipomoea hederacea (IPOHE)
Zea mays (ZEAMX) [8] = experiment: Post-emergence Test, Zea mays (ZEAMX); parameters: key to percentage damage caused to the plant, ZEAMX (five-point scale): 5=81-100%, 4=61-80%, 3=41-60%, 2=21-40%, 1=0-20% damage
Outline: as §1

[9] = system: Amaranthus retoflexus (AMARE); experiment: Post-emergence Test, Amaranthus retoflexus (AMARE); parameters: key to percentage damage caused to the plant, AMARE (five-point scale): 5=81-100%, 4=61-80%, 3=41-60%, 2=21-40%, 1=0-20% damage
Outline: as §1

[10] = system: Echinochloa crus-galli (ECHCG); experiment: Pre-emergence Test, Echinochloa crus-galli (ECHCG)
[11] = system: Ipomoea hederacea (IPOHE); experiment: Post-emergence Test, Ipomoea hederacea (IPOHE); parameters: key to percentage damage caused to the plant, IPOHE (five-point scale): 5=81-100%, 4=61-80%, 3=41-60%, 2=21-40%, 1=0-20% damage
Outline: as §1

[12] = system: Amaranthus palmeri (AMAPA); experiment: Pre-emergence Test, Amaranthus palmeri (AMAPA)

Row | Structure (SMILES) | Pre-emergence Test ZEAMX, percentage damage caused to the plant (five-point scale) (Zea mays (ZEAMX) [1]; 250 g/Ha (*)) | Pre-emergence Test SETFA, percentage damage caused to the plant (five-point scale) (Setaria faberi (SETFA) [2]; 250 g/Ha (*)) | percentage damage caused to the plant, ECHCG (five-point scale) ([3]; 250 g/Ha) | Pre-emergence Test AMARE, percentage damage caused to the plant (five-point scale) ([4]; 250 g/Ha (*)) | percentage damage caused to the plant, AMAPA (five-point scale) ([5]; 250 g/Ha) | percentage damage caused to the plant, SETFA (five-point scale) (Setaria faberi (SETFA) [6]; 250 g/Ha) | percentage damage caused to the plant, ZEAMX (five-point scale) (Zea mays (ZEAMX) [8]; 250 g/Ha) | percentage damage caused to the plant, AMARE (five-point scale) ([9]; 250 g/Ha) | percentage damage caused to the plant, IPOHE (five-point scale) ([11]; 250 g/Ha) | Pre-emergence Test ZEAMX, percentage damage caused to the plant (five-point scale) (Zea mays (ZEAMX) [1]; 1000 g/ha) | Pre-emergence Test SETFA, percentage damage caused to the plant (five-point scale) (Setaria faberi (SETFA) [2]; 1000 g/ha) | percentage damage caused to the plant, ECHCG (five-point scale) ([3]; 1000 g/ha) | Pre-emergence Test AMARE, percentage damage caused to the plant (five-point scale) ([4]; 1000 g/ha) | percentage damage caused to the plant, SETFA (five-point scale) (Setaria faberi (SETFA) [6]; 1000 g/ha) | Pre-emergence Test IPOHE, percentage damage caused to the plant (five-point scale) ([7]; 1000 g/ha) | percentage damage caused to the plant, ZEAMX (five-point scale) (Zea mays (ZEAMX) [8]; 1000 g/ha) | percentage damage caused to the plant, AMARE (five-point scale) ([9]; 1000 g/ha) | Pre-emergence Test ECHCG, percentage damage caused to the plant (five-point scale) ([10]; 1000 g/ha) | percentage damage caused to the plant, IPOHE (five-point scale) ([11]; 1000 g/ha) | Pre-emergence Test AMAPA, percentage damage caused to the plant (five-point scale) ([12]; 1000 g/ha) | also measured
1 | CCn1c(Cn2ccc(F)n2)cc(=O)c(C(=O)O)c1-c1ccc(Cl)c(Cl)c1 [Compound 36, 2-(3,4-dichlorophenyl)-1-ethyl-6-[(3-fluoropyrazol-1-yl)methyl]-4-oxo-pyridine-3-carboxylic acid] | 0 | 4 (4=61-80%) | 3 (3=41-60%) | 1 (1=0-20%) | 1 (1=0-20%) | 4 (4=61-80%) | 2 (2=21-40%) | 2 (2=21-40%) | 4 (4=61-80%) |  |  |  |  |  |  |  |  |  |  |  | Pre-emergence Test IPOHE, percentage damage caused to the plant (five-point scale) ([7]; 250 g/Ha (*)): 0; Pre-emergence Test ECHCG, percentage damage caused to the plant (five-point scale) ([10]; 250 g/Ha (*)): 3 (3=41-60%); Pre-emergence Test AMAPA, percentage damage caused to the plant (five-point scale) ([12]; 250 g/Ha (*)): 2 (2=21-40%)
2 | CCn1c(Cn2ccc(C(F)(F)F)n2)cc(=O)c(C(=O)OC)c1-c1ccc(Cl)cc1 [Compound 22, methyl 2-(4-chlorophenyl)-1-ethyl-4-oxo-6-[[3-(trifluoromethyl)pyrazol-1-yl]methyl]pyridine-3-carboxylate] | 0 | 4 (4=61-80%) | 0 | 0 | 1 (1=0-20%) | 3 (3=41-60%) | 0 | 1 (1=0-20%) | 1 (1=0-20%) | 0 | 4 (4=61-80%) | 3 (3=41-60%) | 0 | 3 (3=41-60%) | 0 | 1 (1=0-20%) | 1 (1=0-20%) | 3 (3=41-60%) | 2 (2=21-40%) | 0 | percentage damage caused to the plant, AMAPA (five-point scale) ([5]; 1000 g/ha): 1 (1=0-20%); Pre-emergence Test IPOHE, percentage damage caused to the plant (five-point scale) ([7]; 250 g/Ha (*)): 0; Pre-emergence Test ECHCG, percentage damage caused to the plant (five-point scale) ([10]; 250 g/Ha (*)): 1 (1=0-20%); Pre-emergence Test AMAPA, percentage damage caused to the plant (five-point scale) ([12]; 250 g/Ha (*)): 0
3 | CCn1c(Cn2nc(C(=O)OC)cc2C(=O)OC)cc(=O)c(C(=O)O)c1-c1ccc(Cl)c(Cl)c1 [Compound 115, 6-[[3,5-bis(methoxycarbonyl)pyrazol-1-yl]methyl]-2-(3,4-dichlorophenyl)-1-ethyl-4-oxo-pyridine-3-carboxylic acid] |  |  | 0 |  | 1 (1=0-20%) | 0 | 0 | 1 (1=0-20%) | 0 | 0 | 1 (1=0-20%) | 0 | 0 | 0 | 0 | 1 (1=0-20%) | 0 | 0 | 0 | 1 (1=0-20%) | percentage damage caused to the plant, AMAPA (five-point scale) ([5]; 1000 g/ha): 2 (2=21-40%)
4 | CCn1c(Cn2ncc3cnc(Cl)cc32)cc(=O)c(C(=O)O)c1-c1ccc(Cl)c(Cl)c1 [Compound 75, 6-[(6-chloropyrazolo[4,3-c]pyridin-1-yl)methyl]-2-(3,4-dichlorophenyl)-1-ethyl-4-oxo-pyridine-3-carboxylic acid] | 0 | 1 (1=0-20%) | 1 (1=0-20%) | 1 (1=0-20%) | 1 (1=0-20%) | 0 | 0 | 1 (1=0-20%) | 0 |  |  |  |  |  |  |  |  |  |  |  | Pre-emergence Test IPOHE, percentage damage caused to the plant (five-point scale) ([7]; 250 g/Ha (*)): 0; Pre-emergence Test ECHCG, percentage damage caused to the plant (five-point scale) ([10]; 250 g/Ha (*)): 1 (1=0-20%); Pre-emergence Test AMAPA, percentage damage caused to the plant (five-point scale) ([12]; 250 g/Ha (*)): 1 (1=0-20%)
5 | CCOC(=O)c1nn(Cc2cc(=O)c(C(=O)O)c(-c3ccc(Cl)c(Cl)c3)n2CC)cc1C [Compound 123, 2-(3,4-dichlorophenyl)-6-[(3-ethoxycarbonyl-4-methyl-pyrazol-1-yl)methyl]-1-ethyl-4-oxo-pyridine-3-carboxylic acid] |  |  | 2 (2=21-40%) |  | 0 | 0 | 0 | 0 | 0 | 0 | 1 (1=0-20%) | 1 (1=0-20%) | 0 | 1 (1=0-20%) | 0 | 1 (1=0-20%) | 1 (1=0-20%) | 0 | 2 (2=21-40%) | 1 (1=0-20%) | 
6 | CCn1c(Cn2ccc(C(F)(F)F)n2)cc(=O)c(C(=O)O)c1-c1ccc(Cl)c(F)c1 [Compound 30, 2-(4-chloro-3-fluoro-phenyl)-1-ethyl-4-oxo-6-[[3-(trifluoromethyl)pyrazol-1-yl]methyl]pyridine-3-carboxylic acid] |  |  | 3 (3=41-60%) |  | 0 | 4 (4=61-80%) | 3 (3=41-60%) | 1 (1=0-20%) | 4 (4=61-80%) | 5 (5=81-100%) | 5 (5=81-100%) | 4 (4=61-80%) | 0 | 5 (5=81-100%) | 4 (4=61-80%) | 4 (4=61-80%) | 4 (4=61-80%) | 5 (5=81-100%) | 2 (2=21-40%) | 1 (1=0-20%) | percentage damage caused to the plant, AMAPA (five-point scale) ([5]; 1000 g/ha): 2 (2=21-40%)
